Consider 4 molecules from patent publication US5420140A, “Difluorinated quinolones useful for treating bacterial infections” (Bouchara S.A., priority 1991, dated 1995).

The structures appear in SMILES notation. In brackets after ≈: the same amount, converted by molar mass. Some results are limits rather than exact numbers.

Assay [1] concerns Acinetobacter Baumanii ATCC 17904. Put plainly: Determination of MIC and MBC by microdilution method, Acinetobacter. Conditions: for Minimal bactericidal concentration (MBC) / Minimal inhibitory concentration (MIC) / MIC: Acinetobacter Baumanii ATCC 17904; for Minimal inhibitory concentration (MIC) / MIC: Mueller-Hinton broth, 18 hours at 37°; for MIC / MBC: Acinetobacter baumannii; for MIC: ATCC17904, 18 h, read-out: Minimal inhibitory concentration (MIC); for MBC: ATCC17904, Acinetobacter Baumanii ATCC 17904, read-out: Minimal bactericidal concentration (MBC). The format is cell-based. As for the experimental part:
The compound have been tested towards 7 reference strains: […]
(§1) The determination of minimal inhibitory concentrations (MIC) has been performed using a microdution method (microplates and inoculator Dynatech) in liquid medium (MUELLER-HINTON broth) under a volume of 100 μl and for a range of concentrations from 128 to 0.06 mg/l, prepared from a mother liquor of antibiotics titrating 512 mg/l. The preparation of these mother liquors has been performed and vary depending on the molecules as a function of the solubility criterions. Inoculation has been done by adding in each will, 10 μl of a dilution in saline of 18 hours old broth in a brain-heart broth, such as each well contains about 10^6 bacterias/ml.
(§2) The Minimal Inhibitory Concentrations are read as the first concentration of antibiotic which will not give a growth macroscopically detectable after 18 hours incubating at 37°.
In general terms: Broth dilution looks for growth in wells or tubes with falling amounts of substance.

For assay [2], the system named is Staphylococcus aureus ATCC 25923. Put plainly: Determination of MIC and MBC by microdilution method, Staphylococcus aureus ATCC 25923. It counts as cell-based. Conditions: for Minimal bactericidal concentration (MBC) / Minimal inhibitory concentration (MIC) / MIC: S. aureus ATCC 25923; for Minimal inhibitory concentration (MIC) / MIC: Mueller-Hinton broth, 18 hours at 37°; for MIC / MBC: Staphylococcus aureus; for MIC: ATCC25923, 18 h, read-out: Minimal inhibitory concentration (MIC); for MBC: ATCC25923, S. aureus ATCC 25923, read-out: Minimal bactericidal concentration (MBC). How it is done:
(§3) The compound have been tested towards 7 reference strains:
Staphylococcus aureus ATCC 25923
as §1, §2

The test system of assay [3] is Bacillus subtilis ATCC 9372. Kind of assay: Determination of MIC and MBC by microdilution method, Bacillus subtilis ATCC 9372. It counts as cell-based. Conditions: for Minimal inhibitory concentration (MIC): Mueller-Hinton broth; for Minimal inhibitory concentration (MIC) / MIC: 18 hours at 37°; for MIC: ATCC9372, Mueller-Hinton broth, read-out: Minimal inhibitory concentration (MIC); for MBC: ATCC9372, read-out: Minimal bactericidal concentration (MBC). How it is done:
as §3
Bacillus subtilis ATCC 9372
as §1, §2

The subject of assay [4] is Pseudomonas aeruginosa ATCC 22853. Kind of assay: Determination of MIC and MBC by microdilution method, Pseudomonas aeruginosa ATCC 22853. It counts as cell-based. Conditions: for Minimal bactericidal concentration (MBC) / Minimal inhibitory concentration (MIC) / MIC: P. aeruginosa ATCC 22853; for Minimal inhibitory concentration (MIC) / MIC: Mueller-Hinton broth, 18 hours at 37°; for MIC / MBC: Pseudomonas aeruginosa; for MIC: ATCC22853, 18 h, read-out: Minimal inhibitory concentration (MIC); for MBC: ATCC22853, P. aeruginosa ATCC 22853, read-out: Minimal bactericidal concentration (MBC). How it is done: as §3
Pseudomonas aeruginosa ATCC 22853
(§4) The preparation of these mother liquors has been performed and vary depending on the molecules as a function of the solubility criterions. Inoculation has been done by adding in each will, 10 μl of a dilution in saline of 18 hours old broth in a brain-heart broth, such as each well contains about 10^6 bacterias/ml. […]

In assay [5] the test system is Streptococcus faecalis ATCC 8043. Put plainly: Determination of MIC and MBC by microdilution method, Streptococcus faecalis ATCC 8043. The format is cell-based. Conditions: for Minimal bactericidal concentration (MBC) / Minimal inhibitory concentration (MIC) / MIC: S. faecalis ATCC 8043; for Minimal inhibitory concentration (MIC) / MIC: Mueller-Hinton broth, 18 hours at 37°; for MBC / MIC: Enterococcus faecalis; for MBC: ATCC8043, S. faecalis ATCC 8043, read-out: Minimal bactericidal concentration (MBC); for MIC: ATCC8043, read-out: Minimal inhibitory concentration (MIC). How it is done: as §3
Streptococcus faecalis ATCC 8043
as §4

Another assay has as its system S. aureus CB-951. Kind of assay: Determination of MIC and MBC by microdilution method, S. aureus CB-951. It counts as cell-based, Staphylococcus aureus. Conditions: erythromycinolincomycino, pefloxacino resistant; for Minimal bactericidal concentration (MBC) / Minimal inhibitory concentration (MIC) / MIC: S. aureus CB-951, methicillino; for Minimal inhibitory concentration (MIC) / MIC: Mueller-Hinton broth, 18 hours at 37°; for MIC / MBC: Staphylococcus aureus; for MIC: CB951, 18 h, read-out: Minimal inhibitory concentration (MIC); for MBC: CB951, S. aureus CB-951, methicillino, read-out: Minimal bactericidal concentration (MBC). How it is done: as §3
Staphylococcus aureus CB 951
as §1, §2

Assay [6] relates to Escherichia coli ATCC 25922. Kind of assay: Determination of MIC and MBC by microdilution method, Escherichia coli ATCC 25922. The format is cell-based. Conditions: E. coli ATCC 25922; for Minimal inhibitory concentration (MIC) / MIC: Mueller-Hinton broth, 18 hours at 37°; for MIC / MBC: Escherichia coli, ATCC25922; for MIC: read-out: Minimal inhibitory concentration (MIC); for MBC: read-out: Minimal bactericidal concentration (MBC). As for the experimental part: as §3
Escherichia coli ATCC 25922
as §1, §2

With `C=CCn1cc(C(=O)O)c(=O)c2cc(F)c(N3CCC(CNC(=O)NC(=O)c4ccccc4)CC3)c(F)c21` [Compound 11, 7-[(4-benzoylaminocarboxamidomethyl)piperidinyl-1] 6,8-difluoro 1-allyl 4-oxo 1,4-dihydroquinoleinyl-3 carboxylic acid], the “Minimal bactericidal concentration (MBC)” value was 4 µg/mL (≈ 7.63 µM) in assay [1]; 4 µg/mL (≈ 7.63 µM) in assay [2]; 1 µg/mL (≈ 1.91 µM) in assay [3]; > 128 µg/mL in assay [4]; 32 µg/mL (≈ 61 µM) in assay [5]; 4 µg/mL (≈ 7.63 µM) in the assay on S. aureus CB-951. The “Minimal bactericidal concentration (MBC)” value in assay [6] was > 128 µg/mL. The “Minimal inhibitory concentration (MIC)” value in assay [1] is 1 µg/mL (≈ 1.91 µM); in assay [2], 1 µg/mL (≈ 1.91 µM); in assay [3] it was 0,5 μg/ml; in assay [4], 128 µg/mL (≈ 244 µM); in assay [5], 16 µg/mL (≈ 30.5 µM); in the assay with S. aureus CB-951 it was 4 µg/mL (≈ 7.63 µM). Also, the “Minimal inhibitory concentration (MIC)” value in assay [6] is 128 µg/mL (≈ 244 µM).

For `C=CCn1cc(C(=O)O)c(=O)c2cc(F)c(N3CCC(NC(C)=O)CC3)c(F)c21` [Compound 9, 7-(4-acetylaminopiperidinyl-1) 6,8-difluoro 1-allyl 4-oxo 1,4-dihydroquinoleinyl-3 carboxylic acid], the “Minimal bactericidal concentration (MBC)” value in assay [1] is 8 µg/mL (≈ 19.7 µM); in assay [2] it was 4 µg/mL (≈ 9.87 µM); in assay [3] it was 2 µg/mL (≈ 4.93 µM); in assay [4] it was > 128 µg/mL; in assay [5], 16 µg/mL (≈ 39.5 µM); in the assay with S. aureus CB-951, 8 µg/mL (≈ 19.7 µM). Further, the “Minimal bactericidal concentration (MBC)” value in assay [6] is 32 µg/mL (≈ 78.9 µM). Also, the “Minimal inhibitory concentration (MIC)” value is 4 µg/mL (≈ 9.87 µM) in assay [1]; 1 µg/mL (≈ 2.47 µM) in assay [2]; 1 µg/mL (≈ 2.47 µM) in assay [3]; > 128 µg/mL in assay [4]; 4 µg/mL (≈ 9.87 µM) in assay [5]; 4 µg/mL (≈ 9.87 µM) in the assay on S. aureus CB-951. For the same molecule, the “Minimal inhibitory concentration (MIC)” value in assay [6] was 16 µg/mL (≈ 39.5 µM).

As to `CCn1cc(C(=O)O)c(=O)c2cc(F)c(N3CCC(CN)CC3)c(F)c21` [Compound 1, 7-(4-aminomethylpiperidinyl-1) 6,8-difluoro 1-ethyl 4-oxo 1,4-dihydroquinoleinyl-3 carboxylic acid], the MIC in assay [1] is 0.25 µg/mL (≈ 0.684 µM); in assay [2], 0.25 µg/mL (≈ 0.684 µM); in assay [3] it was 0.25 µg/mL (≈ 0.684 µM); in assay [4], 2 µg/mL (≈ 5.47 µM); in assay [5] it was 0.5 µg/mL (≈ 1.37 µM); in the assay with S. aureus CB-951 it was 2 µg/mL (≈ 5.47 µM). In addition, the MIC in assay [6] was determined as 0.5 µg/mL (≈ 1.37 µM). The MBC was 0.5 µg/mL (≈ 1.37 µM) in assay [1]; 0.25 µg/mL (≈ 0.684 µM) in assay [2]; 0.25 µg/mL (≈ 0.684 µM) in assay [3]; 4 µg/mL (≈ 10.9 µM) in assay [4]; 0.5 µg/mL (≈ 1.37 µM) in assay [5]; 2 µg/mL (≈ 5.47 µM) in the assay with S. aureus CB-951. Moreover, the MBC in assay [6] is 0.5 µg/mL (≈ 1.37 µM).

In the case of `C=CCn1cc(C(=O)O)c(=O)c2cc(F)c(N3CCC(CN)CC3)c(F)c21` [Compound 6, 7-(4-aminomethylpiperidinyl-1) 6,8-difluoro 1-allyl 4-oxo 1,4-dihydroquinoleinyl-3 carboxylic acid], the MIC in assay [1] is 1 µg/mL (≈ 2.65 µM); in assay [2], 1 µg/mL (≈ 2.65 µM); in assay [3], 1 µg/mL (≈ 2.65 µM); in assay [4] it was 8 µg/mL (≈ 21.2 µM); in assay [5], 1 µg/mL (≈ 2.65 µM); with S. aureus CB-951 it was 32 µg/mL (≈ 84.8 µM). Besides, in assay [6], the MIC was 1 µg/mL (≈ 2.65 µM). In addition, the MBC in assay [1] came out at 2 µg/mL (≈ 5.3 µM); in assay [2], 2 µg/mL (≈ 5.3 µM); in assay [3], 2 µg/mL (≈ 5.3 µM); in assay [4], 16 µg/mL (≈ 42.4 µM); in assay [5], 4 µg/mL (≈ 10.6 µM); in the assay on S. aureus CB-951, 64 µg/mL (≈ 170 µM). Further, the MBC in assay [6] is 2 µg/mL (≈ 5.3 µM).
